Assays:
[1] = target: T1, α1b-AR (Homo sapiens, UniProt P35368); assay: radioligand ([125I]-HEAT) receptor binding assay, COS cell membranes expressing cloned receptor; conditions: [125I]-HEAT 50 pM, 1 hour room temperature
T1 construct: expressed in transfected cells; host or cells: COS cells, pcDNA3 vector, transient DEAE-dextran transfection
T1 sequence (P35368 1-520): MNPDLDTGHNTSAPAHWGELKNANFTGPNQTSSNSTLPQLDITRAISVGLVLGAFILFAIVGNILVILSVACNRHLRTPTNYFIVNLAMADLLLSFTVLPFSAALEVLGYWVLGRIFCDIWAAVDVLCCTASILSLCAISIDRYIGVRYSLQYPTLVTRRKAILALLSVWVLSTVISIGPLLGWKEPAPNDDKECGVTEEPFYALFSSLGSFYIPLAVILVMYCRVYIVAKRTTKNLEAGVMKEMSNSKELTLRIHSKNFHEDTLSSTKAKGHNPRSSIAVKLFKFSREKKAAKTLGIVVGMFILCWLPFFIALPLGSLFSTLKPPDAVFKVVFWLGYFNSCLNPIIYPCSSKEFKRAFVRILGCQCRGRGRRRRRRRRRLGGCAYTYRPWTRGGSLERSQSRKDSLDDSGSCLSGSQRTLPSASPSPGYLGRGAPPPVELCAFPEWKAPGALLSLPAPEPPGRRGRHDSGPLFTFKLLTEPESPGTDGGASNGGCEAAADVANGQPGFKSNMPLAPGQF
Excerpt: (§1) The first assay tested the ability of compounds of Formula I to bind to membrane bound receptors α1a-AR, α1b-AR and α1d-AR.
(§2) The DNA sequences of the three cloned human α1-AR subtypes have been published. […] We used published DNA sequence information to design primers for use in RT-PCR amplification of each subtype to obtain cloned cDNAs. Human poly A+ RNA was obtained from commercially available sources and included hippocampus and prostate samples, sources which have been cited in the literature. For the primary screen a radioligand binding assay was used which employed membrane preparations from cells expressing the individual cloned receptor cDNAs. Radiolabeled ligands with binding activity on all three subtypes (non-selective) are commercially available ([125I]-HEAT, [3H]-prazosin). Each α1 receptor subtype was cloned from poly A+ RNA by the standard method of reverse transcription-polymerase chain reaction (RT-PCR). The following sources of polyA+ RNA were used for the cloning of the α1 receptor subtypes: α1a-AR, human hippocampus and prostate, α1b-AR, human hippocampus, α1d-AR, human hippocampus. The resulting cDNAs were cloned into the pcDNA3 mammalian expression vector (Invitrogen Corp., San Diego Calif.). Each DNA was sequenced for verification and to detect any possible mutations introduced during the amplification process. Any deviation in sequence from the published consensus for each receptor subtype was corrected by site-directed mutagenesis.
(§3) The three α1-AR subtypes (a, b, d) were transfected into COS cells using a standard DEAE-dextran procedure with a chloroquine shock. In this procedure, each tissue culture dish (100 mm) was inoculated with 3.5×10^6 cells and transfected with 10 μg of DNA. Approximately 72 hours post-transfection, the cells were harvested and COS membranes were prepared. Transfected COS cells from 25 plates (100 mm) were scraped and suspended in 15 mL of TE buffer (50 mM Tris-HCl, 5 mM EDTA, pH 7.4). The suspension was disrupted with a homogenizer. It was then centrifuged at 1000× g for 10 minutes at 4° C. The supernatant was centrifuged at 34,500× g for 20 minutes at 4° C. The pellet was resuspended in 5 mL TNE buffer (50 mM Tris-HCl, 5 mM EDTA, 150 mM NaCl, pH 7.4). The resulting membrane preparation was aliquoted and stored at −70° C. The protein concentration was determined following membrane solubilization with TritonX-100.
(§4) The ability of each compound to bind to each of the α1-AR subtypes was assessed in a receptor binding assay. [125I]-HEAT, a non-selective α1-AR ligand, was used as the radiolabeled ligand. Each well of a 96-well plate received: 140 μL TNE, […] [125I]-HEAT diluted in TNE (50,000 cpm; final concentration 50 pM), 10 μL test compound diluted in DMSO (final concentration 1 pM-10 μM), […] COS cell membrane preparation expressing one of the three α1-AR subtypes (0.05-0.2 mg membrane protein). The plate was incubated for 1 hour at room temperature and the reaction mixtures were filtered through a Packard GF/C Unifilter filter plate. The filter plate was dried for 1 hour in a vacuum oven. Scintillation fluid ([…]) was added to each well, and the filter plate was counted in a Packard Topcount scintillation counter. Data was analyzed using GraphPad Prism software.
(§5) Tables A through D list the IC50 values expressed in nanomolar concentration for select compounds of the invention in all receptor subtypes.

[2] = target: T2, α1d-AR (Homo sapiens, UniProt P25100); assay: as above; conditions: [125I]-HEAT 50 pM, 1 hour room temperature
T2 construct: expressed in transfected cells; host or cells: COS cells, pcDNA3 vector, transient DEAE-dextran transfection
T2 sequence (P25100 1-572): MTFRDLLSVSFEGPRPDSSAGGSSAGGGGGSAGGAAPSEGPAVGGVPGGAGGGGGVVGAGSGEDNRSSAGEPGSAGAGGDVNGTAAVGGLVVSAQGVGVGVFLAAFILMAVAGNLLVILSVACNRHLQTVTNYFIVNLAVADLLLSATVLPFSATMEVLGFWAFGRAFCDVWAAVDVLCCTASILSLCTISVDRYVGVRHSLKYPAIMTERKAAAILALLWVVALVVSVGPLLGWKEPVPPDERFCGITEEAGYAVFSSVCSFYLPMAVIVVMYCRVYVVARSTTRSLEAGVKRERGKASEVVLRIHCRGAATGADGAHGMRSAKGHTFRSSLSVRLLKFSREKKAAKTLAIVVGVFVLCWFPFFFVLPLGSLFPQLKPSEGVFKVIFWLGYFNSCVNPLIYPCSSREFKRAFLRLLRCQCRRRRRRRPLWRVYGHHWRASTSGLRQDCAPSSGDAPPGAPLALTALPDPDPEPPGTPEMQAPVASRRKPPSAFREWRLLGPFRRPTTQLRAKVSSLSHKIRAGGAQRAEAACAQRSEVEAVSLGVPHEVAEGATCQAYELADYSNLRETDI
Excerpt: as §1, §2, §3, §4, §5

| SMILES | IC50 [1] | IC50 [2] |
| --- | --- | --- |
| CC(C)Oc1ccccc1N1CCN(CC(O)CNC(=O)c2ccc3c(c2)C(=O)N(c2ccc(O)cc2)C3=O)CC1 (single isomer, unassigned) [Compound 35] | > 2000 nM | 137 nM |
| CC(C)Oc1ccccc1N1CCN(CCCNC(=O)c2ccc3c(c2)C(=O)N(c2cccc(F)c2)C3=O)CC1 [Compound 6] | 482 nM | 22 nM |
| CC(C)Oc1ccccc1N1CCN(CC(O)CNC(=O)c2ccc3c(c2)C(=O)N(c2cccnc2)C3=O)CC1 (centres unmarked) [Compound 11] | > 2000 nM | 31 nM |
| COC(CNC(=O)c1ccc2c(c1)C(=O)N(c1cccc(F)c1)C2=O)CN1CCN(c2ccccc2OC(C)C)CC1 (centres unmarked) [Compound 14] | > 2000 nM | 407 nM |
| CC(C)Oc1ccccc1N1CCN(C[C@@H](O)CNC(=O)c2ccc3c(c2)C(=O)N(c2ccc(N(C)C)cc2)C3=O)CC1 [Compound 21, (S)-2-[4-(dimethylamino)phenyl]-2,3-dihydro-N-[2-hydroxy-3-[4-[2-(1-methylethoxy)phenyl]-1-piperazinyl]propyl]-1,3-dioxo-1H-isoindole-5-carboxamide] | > 2000 nM | 52 nM |
| CC(C)Oc1ccccc1N1CCN(CC(O)CNC(=O)c2ccc3c(c2)C(=O)N(c2ccc(N(C)C)cc2)C3=O)CC1 (centres unmarked) [Compound 28] | > 2000 nM | 44 nM |
| CC(C)Oc1ccccc1N1CCN(CC(O)CNC(=O)c2ccc3c(c2)C(=O)N(c2cc(F)cc(F)c2)C3=O)CC1 (centres unmarked) [Compound 29] | 886 nM | 38 nM |
| CC(C)Oc1ccccc1N1CCN(CC(O)CNC(=O)c2ccc3c(c2)C(=O)N(c2ccc([N+](=O)[O-])cc2)C3=O)CC1 (centres unmarked) [Compound 30] | > 2000 nM | 38 nM |
| CC(C)Oc1ccccc1N1CCN(CC(O)CNC(=O)c2ccc3c(c2)C(=O)N(c2ccc(C(C)(C)C)cc2)C3=O)CC1 (centres unmarked) [Compound 41] | > 2000 nM | 75 nM |
| CCOc1ccccc1N1CCN(CC(O)CNC(=O)c2ccc3c(c2)C(=O)N(c2cccc(F)c2)C3=O)CC1 (centres unmarked) [Compound 42] | > 2000 nM | 136 nM |
| COc1ccccc1N1CCN(CC(O)CNC(=O)c2ccc3c(c2)C(=O)N(c2cccc(F)c2)C3=O)CC1 (centres unmarked) [Compound 43] | > 2000 nM | 540 nM |
| CC(C)Oc1ccccc1N1CCN(CCCNC(=O)c2ccc3c(c2)C(=O)N(c2ccc(N(C)C)cc2)C3=O)CC1 [Compound 44] | 465 nM | 15 nM |
| COc1ccc(N2C(=O)c3ccc(C(=O)NCCCN4CCN(c5ccccc5OC(C)C)CC4)cc3C2=O)cc1 [Compound 45] | 361 nM | 16 nM |
| Cc1ccc(N2C(=O)c3ccc(C(=O)NCCCN4CCN(c5ccccc5OC(C)C)CC4)cc3C2=O)cc1 [Compound 46] | > 2000 nM | 37 nM |
| CC(C)Oc1ccccc1N1CCN(CCCNC(=O)c2ccc3c(c2)C(=O)N(c2ccc(O)cc2)C3=O)CC1 [Compound 47] | 255 nM | 13 nM |
| CC(=O)c1ccc(N2C(=O)c3ccc(C(=O)NCC(O)CN4CCN(c5ccccc5OC(C)C)CC4)cc3C2=O)cc1 (centres unmarked) [Compound 48] | > 2000 nM | 60 nM |
| CC(C)Oc1ccccc1N1CCN(CC(O)CNC(=O)c2ccc3c(c2)C(=O)N(c2ccc(Cl)cc2)C3=O)CC1 (centres unmarked) [Compound 53] | 606 nM | 55 nM |
| CC(C)Oc1ccccc1N1CCN(CC(O)CNC(=O)c2ccc3c(c2)C(=O)N(c2ccc(Cl)c(Cl)c2)C3=O)CC1 (centres unmarked) [Compound 56] | 1230 nM | 40 nM |
| CC(C)Oc1ccccc1N1CCN(CC(O)CNC(=O)c2ccc3c(c2)C(=O)N(c2cccc(C(F)(F)F)c2)C3=O)CC1 (centres unmarked) [Compound 57] | > 2000 nM | 89 nM |

Next, values leading:

| IC50 [1] | IC50 [2] | SMILES |
| --- | --- | --- |
| 1830 nM | 76 nM | CC(C)Oc1ccccc1N1CCN(CC(O)CNC(=O)c2ccc3c(c2)C(=O)N(c2cccc(F)c2)C3=O)CC1 (racemic) [Compound 4] |
| > 2000 nM | 190 nM | CC(C)Oc1ccccc1N1CCN(C[C@@H](O)CNC(=O)c2ccc3c(c2)C(=O)N(c2cccc(F)c2)C3=O)CC1 [Compound 9] |
| 1640 nM | 74 nM | COc1ccccc1N1C(=O)c2ccc(C(=O)NCC(O)CN3CCN(c4ccccc4OC(C)C)CC3)cc2C1=O (centres unmarked) [Compound 26] |
| > 2000 nM | 63 nM | CC(C)Oc1ccccc1N1CCN(C[C@H](O)CNC(=O)c2ccc3c(c2)C(=O)N(c2cccc(F)c2)C3=O)CC1 [Compound 27] |
| > 2000 nM | 175 nM | COc1ccc(N2C(=O)c3ccc(C(=O)NCC(O)CN4CCN(c5ccccc5OC(C)C)CC4)cc3C2=O)cc1OC (centres unmarked) [Compound 38] |
| > 2000 nM | 73 nM | Cc1ccc(N2C(=O)c3ccc(C(=O)NCC(O)CN4CCN(c5ccccc5OC(C)C)CC4)cc3C2=O)cc1C (centres unmarked) [Compound 39] |
| > 2000 nM | 73 nM | Cc1cccc(N2C(=O)c3ccc(C(=O)NCC(O)CN4CCN(c5ccccc5OC(C)C)CC4)cc3C2=O)c1 (centres unmarked) [Compound 49] |
| > 2000 nM | 111 nM | CC(C)Oc1ccccc1N1CCN(CC(O)CNC(=O)c2ccc3c(c2)C(=O)N(c2ccc(F)cc2)C3=O)CC1 (centres unmarked) [Compound 50] |
| > 2000 nM | 65 nM | CC(C)Oc1ccccc1N1CCN(CC(O)CNC(=O)c2ccc3c(c2)C(=O)N(c2ccccc2)C3=O)CC1 (centres unmarked) [Compound 51] |
| > 2000 nM | 62 nM | Cc1ccc(N2C(=O)c3ccc(C(=O)NCC(O)CN4CCN(c5ccccc5OC(C)C)CC4)cc3C2=O)cc1 (centres unmarked) [Compound 52] |
| 669 nM | 37 nM | CC(C)Oc1ccccc1N1CCN(CC(O)CNC(=O)c2ccc3c(c2)C(=O)N(c2cccc(Cl)c2)C3=O)CC1 (centres unmarked) [Compound 54] |
| > 2000 nM | 28 nM | CC(C)Oc1ccccc1N1CCN(CC(O)CNC(=O)c2ccc3c(c2)C(=O)N(c2ccc(O)cc2)C3=O)CC1 (centres unmarked) [Compound 58] |
